Publication PMC6743424, “Phenolic acid phenethylesters and their corresponding ketones: Inhibition of 5‐lipoxygenase and stability in human blood and HepaRG cells” (Pharmacology Research & Perspectives, 2019)

Legend:
Type in all cases: in vitro ADME, human
[1] = test system: HepaRG cells; experiment: Residual inhibition of 5‐LO product biosynthesis in blood after incubation with HepaRG cells; conditions: for Inhibitory activity against 5‐LO product biosynthesis after incubation with HepaRG cells: 50 µmol/L with HepaRG cells, after 60 minutes, medium added to blood, zymosan, LTB4
Method: (§1) Differentiated HepaRG cells, plated in 24 well plates, were washed with hepatocyte suspension medium (Williams E‐medium without phenol red, supplemented with 2 mmol/L Glutamax and […] HEPES) before addition of hepatocyte suspension medium (250 µL/well) containing (30 or 50 µmol/L) of the test compounds or their diluent. Cells were then incubated for 7.5, 15, 30, 60 or 90 minutes at 37°C after which the medium was removed.
In experiments where the inhibitory capacity of test compounds was to be determined after incubation with HepaRG cells, 125 µL of the hepatocyte suspension medium containing test compounds that had been collected at different time points from HepaRG cultures was added to 1 mL of heparinized blood. After a 5 minutes of preincubation, blood was then stimulated with opsonized zymosan and processed for HPLC analysis of 5‐LO metabolites as described above.
Figure 6 Stability of the test compounds for the inhibition of the biosynthesis of 5‐LO products following incubation with HepaRG cells. HepaRG cells were incubated with […] of hepatocyte suspension medium containing 50 µmol/L of test compounds for the indicated times at 37°C. Hepatocyte suspension medium (125 µL) was then removed and added to 1 mL of blood that was then incubated for 5 minutes and then stimulated with opsonized zymosan (4 mg/mL) for 30 minutes at 37°C. Blood was then centrifuged and plasma was collected and added to 1.2 mL of CH3OH:CH3CN (1:1). Samples were processed for analysis using RP‐HPLC for LTB4 quantification. Data are expressed as means ± SEM of at least three independent experiments. *Difference from time = 0, as determined using One‐way ANOVA with Dunnett's multiple comparison test (P < .05)

[2] = test system: HepaRG cells; experiment: Kinetics of test compound disappearance in HepaRG cell culture (HPLC); conditions: 30 µmol/L, 37°C; mean (95% confidence interval), four experiments
Method: Undifferentiated cryopreserved HepaRG cells (BioPredic International) were seeded in 12 or 24 well plates at 1.1 × 10^5 and 0.55 × 10^5 cells per well, respectively. Cells were cultured for 14 days in Williams E‐medium supplemented with 1% penicillin‐streptomycin (10 000 U/mL), 10% fœtal bovine serum (FBS), 50 mg/L hydrocortisone hemisuccinate, 5 mg/L insulin and 2 mmol/L Glutamax, and the medium was renewed every 2‐3 days. After 14 days, the culture medium was replaced by the same formulation as above supplemented with 2% dimethyl sulfoxide (DMSO) to induce differentiation. Cells were considered differentiated and ready for experiments after 14 days of differentiation (28 days after seeding).
as §1
In experiments where the test compounds incubated with HepaRG cells were to be measured, the cell layer was washed with 250 µL of hepatocyte suspension medium which was then pooled with the first medium. The mixture was then added to 250 µL of ice cold CH3OH:CH3CN (1:1, vol:vol) containing 10 µmol/L of phenethyl 3,4,5‐trimethoxycinnamate as an internal standard. The resulting solution was frozen at −80°C for 2 hour to precipitate any dissolved proteins, centrifuged at 1800g and the supernatant transferred to vials and stored at −20°C until HPLC analysis.
Figure 5 Kinetics of test compound disappearance in HepaRG cell culture. (A) HepaRG cells were incubated in 250 µL of hepatocyte suspension medium containing 30 µmol/L of test compounds for the indicated times at 37°C. Supernatants were removed and added to 250 µL of ice cold CH3OH:CH3CN (1:1 vol:vol) containing 10 µmol/L of phenethyl 3,4,5‐trimethoxycinnamate as an internal standard. The cell layer was washed with 250 µL of hepatocyte suspension medium and added to the above mixture. Samples were centrifuged at 1900g and the supernatants were collected for HPLC analysis as described in the Methods. Values are means ± SEM. (B) Calculated half‐lives of the test compounds in HepaRG cell cultures. Values are means (95% confidence interval). All data are from four independent experiments TEXT PRINTED IN THE PICTURE: (B) CAPE (2): Half-life (Minutes): 4.70 (4.42 - 5.02) | (B) 7: Half-life (Minutes): 6.42 (5.72 -7.31) | (B) 5: Half-life (Minutes): 3.71 (3.67-3.74) | (B) 8: Half-life (Minutes): 6.48 (6.01-7.04) | (B) 9: Half-life (Minutes): 4.38 (4.23 - 4.55) | (B) 10: Half-life (Minutes): 11.32 (10.21- 12.71)

[3] = Stability of inhibitory activity after incubation in whole blood; conditions: 3 μmol/L in whole blood up to 240 minutes before zymosan; LTB4
Method: Figure 4 Stability of the test compounds for the inhibition of the biosynthesis of 5‐LO products following incubation in plasma or in whole blood. (A) Test compounds were incubated (30 µmol/L) in human plasma for the indicated times at 37°C. Plasma (50 µL) containing the test compounds was then added to 450 µL of PMNL (10^7 cells/mL) which were then stimulated with 1 μmol/L of thapsigargin for 15 minutes at 37°C. The stimulation was then stopped, samples were processed, and 5‐LO products were measured using RP‐HPLC. (B) Whole blood was incubated in the presence of 3 μmol/L of test compounds or with their diluent (control, DMSO 0.1%) for the indicated times and was then stimulated with opsonized zymosan (4 mg/mL) for 30 minutes at 37°C. Blood was then centrifuged and plasma was collected and added to 1.2 mL of CH3OH:CH3CN (1:1). Samples were processed for analysis using RP‐HPLC for LTB4 quantification. All data are expressed as means ± SEM of at least three independent experiments. *Difference from time = 0, as determined using One‐way ANOVA with Dunnett's multiple comparison test (P < .05)

SMILES	Inhibitory activity against 5‐LO product biosynthesis after incubation with HepaRG cells [1]	Half-life in HepaRG cell cultures [2]	Stability of inhibitory activity after incubation in whole blood [3]	Inhibitory activity retained after incubation in HepaRG cultures ([1]; after up to one hour of incubation)
O=C(/C=C/c1cc(O)ccc1O)CCc1ccccc1 [compound 8]	lost all their inhibitory activity	6.48 (6.01-7.04) Minutes	–	–
O=C(/C=C/c1ccc(O)c(O)c1)OCCc1ccccc1 [CAPE (2), caffeic acid phenethyl ester, reference compound]	lost all their inhibitory activity	4.70 (4.42 - 5.02) Minutes	complete loss of inhibitory activity after 240 minutes	–
COc1cc(/C=C/C(=O)CCc2ccccc2)cc(OC)c1O [compound 10, sinapic acid phenethyl ketone]	maintained significant inhibition	11.32 (10.21- 12.71) Minutes	near complete retention of inhibitory activity	50%
O=C(/C=C/c1ccc(O)c(O)c1)CCCc1ccccc1 [compound 7]	lost all their inhibitory activity	6.42 (5.72 -7.31) Minutes	complete loss of inhibitory activity after 240 minutes	–
O=C(/C=C/c1cc(O)ccc1O)OCCc1ccccc1 [compound 5]	lost all their inhibitory activity	3.71 (3.67-3.74) Minutes	–	–
